The results in this text go back to ChEMBL document CHEMBL1153243, “Structure and property based design of factor Xa inhibitors: pyrrolidin-2-ones with monoaryl P4 motifs” (Bioorg Med Chem Lett, 2010).

SMILES strings stand for the structures.

What all share (format): ADME, organism-based
Data set [1] can be described thus: Half life in Sprague-Dawley rat. The following applies: in vivo.
Data set [2] in a line: Volume of distribution at steady state in Sprague-Dawley rat. The note with it: in vivo, read-out: Vdss.
A short description of data set [3]: Plasma clearance in Sprague-Dawley rat.
Data set [4] can be described thus: Oral bioavailability in Sprague-Dawley rat. The following applies: in vivo.

For `CC(c1ccc(N2CC[C@H](NS(=O)(=O)c3cc4ccc(Cl)cc4s3)C2=O)c(F)c1)N(C)C` (stereo partly drawn), the half-life in data set [1] is 3.1 h. In addition, the Vd in data set [2] is 0.52 L/kg. In data set [3], the clearance was 2.1 mL/min/kg. In addition, in data set [4], the bioavailability turned out to be 10%.

As for `CN[C@H](C)c1ccc(N2CC[C@H](NS(=O)(=O)c3ccc4cc(Cl)ccc4c3)C2=O)c(F)c1`, the half-life in data set [1] is 18 h. For the same compound, in data set [2], the Vd is 2.4 L/kg. In addition, the clearance in data set [3] stood at 1.6 mL/min/kg. Moreover, the bioavailability in data set [4] is greater than 10%.

Consider `C[C@@H](c1ccc(N2CC[C@H](NS(=O)(=O)c3ccc4cc(Cl)ccc4c3)C2=O)c(F)c1)N(C)C`, for which the half-life in data set [1] is 2.1 h. Besides, the Vd in data set [2] was 1.8 L/kg. This compound registered a clearance in data set [3] of 13 mL/min/kg. Further, in data set [4], the bioavailability amounted to 81%.

For the compound `C[C@H](c1ccc(N2CC[C@H](NS(=O)(=O)c3ccc4cc(Cl)ccc4c3)C2=O)c(F)c1)N(C)C`, in data set [1], the half-life is 2.6 h. For the same compound, the Vd in data set [2] was found to be 1.3 L/kg. In data set [3], this compound had a clearance of 8 mL/min/kg. In data set [4], this compound yielded a bioavailability of 43%.

`C[C@@H](c1ccc(N2CC[C@H](NS(=O)(=O)/C=C/c3ccc(Cl)s3)C2=O)c(F)c1)N(C)C` had a half-life in data set [1] of 1.6 h. Moreover, the Vd in data set [2] was determined as 0.53 L/kg. Further, the clearance in data set [3] was found to be 4.3 mL/min/kg. Moreover, the bioavailability in data set [4] was 23%.

For `C[C@H](c1ccc(N2CC[C@H](NS(=O)(=O)/C=C/c3ccc(Cl)s3)C2=O)c(F)c1)N(C)C`, the half-life in data set [1] was 1.3 h. For the same compound, in data set [2], the Vd stood at 0.66 L/kg. Moreover, in data set [3], the clearance came to 7.5 mL/min/kg. The compound further showed a bioavailability in data set [4] of 54%.

In turn, `CN[C@@H](C)c1ccc(N2CC[C@H](NS(=O)(=O)c3ccc4cc(Cl)ccc4c3)C2=O)c(F)c1` had a half-life in data set [1] of 15 h. The Vd in data set [2] is 3.3 L/kg. In data set [3], this compound registered a clearance of 3.1 mL/min/kg. The bioavailability in data set [4] is greater than 15%.
